For 20 molecules, EC50 and melting point results are on record in patent US7109222B2, “Compounds that modulate PPAR activity and methods of preparation” (Warner-Lambert Company, LLC, priority 2002, dated 2006).

In one series the target is T1, hPPARβ (Homo sapiens, UniProt Q03181).
T1 sequence (Q03181 211-441 limits assumed): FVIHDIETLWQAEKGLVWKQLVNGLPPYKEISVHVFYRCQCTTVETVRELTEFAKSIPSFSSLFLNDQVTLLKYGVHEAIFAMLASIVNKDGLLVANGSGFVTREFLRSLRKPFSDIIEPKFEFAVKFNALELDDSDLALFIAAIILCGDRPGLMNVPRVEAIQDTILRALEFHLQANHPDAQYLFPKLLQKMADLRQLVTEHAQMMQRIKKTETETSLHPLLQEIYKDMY
Description: Test A: transient transfection assay in HepG2 cells, Gal4-PPAR chimeric receptor, luciferase reporter (hPPARβ). Format: cell-based. The conditions noted are these: HepG2 cells transfected with hPPARβ chimeric receptor; 24 hours incubation; compound 50 μM to 50 pM; read-out: Hep G2-hβ EC50. The method, then:
(§1) 1. Test A. Transient Transfections Assay Using the HepG2 Hepatoma Cell Line.
(§2) HepG2 cells were transiently transfected with an expression plasmids encoding hPPARα, hPPARβ or mPPARγ chimeric receptors and a reporter containing the yeast upstream activating sequence (UAS) upstream of the viral E1B promoter controlling a luciferase reporter gene. In addition, the plasmid pRSVβ-gal was used to control for transfection efficiency. HepG2 cells were grown in DMEM supplemented with 10% FBS and 1 μM non-essential amino acid. On the first day, cells were split into 100 mm dishes at 2.5×10^6/dish and incubated overnight at 37C.°/5% CO2. On the second day the cells were transiently transfected with plasmid DNA encoding a chimeric receptor, the luciferase reporter gene; and β-gal. For each 100 mm dish, 15 μg of lucifease reporter (PG5E1b) DNA, 15 μg of Gal4-pPAR chimeric receptor DNA, and 1.5 μg of μ-gal plasmid DNA were mixed with 1.4 ml of opti-MEM in the tube. 28 μl of LipoFectamine-2000 reagent was added to 1.4 ml of opti-MEM in the tube, and incubate for 5 min at RT. The diluted Lipofectamine-2000 reagent was combined with the DNA mixture, and incubate for 20 min at RT. After fresh medium was added to each 100 mm dish of cells, 2.8 ml of Lipofectamine2000-DNA mixture was added dropwise to the 100 mm dish containing 14 ml of medium, and incubate 37° C. overnight. On day three cells were trypsinized off the 100 mm dishes and re-plated on 96 well plates. Cells were plated at 2.5×10^4 cells per well in 150 μl of media and 50 μl of compound diluted by media was added. The concentrations of reference agents and test compound added were in the range from 50 μM to 50 pM. After addition of compounds, the plates were incubated at 37° C. for 24 hours. Subsequently cells were washed once with 100 μl of PBS, lysed, and processed for measuring luciferase and μ-gal activity using Dual-Light luciferase kit from Tropix®, according to the manufacturer's recommendations, on an EG&G Bethold MicroLumat LB96P luminometer. EC50 values were obtained using the GraphPad Prism™ program.
A general note: A reporter such as luciferase makes a cellular process visible.

In a further series the target is T2, hPPARα (Homo sapiens, UniProt Q07869).
T2 sequence (Q07869 200-468 limits assumed): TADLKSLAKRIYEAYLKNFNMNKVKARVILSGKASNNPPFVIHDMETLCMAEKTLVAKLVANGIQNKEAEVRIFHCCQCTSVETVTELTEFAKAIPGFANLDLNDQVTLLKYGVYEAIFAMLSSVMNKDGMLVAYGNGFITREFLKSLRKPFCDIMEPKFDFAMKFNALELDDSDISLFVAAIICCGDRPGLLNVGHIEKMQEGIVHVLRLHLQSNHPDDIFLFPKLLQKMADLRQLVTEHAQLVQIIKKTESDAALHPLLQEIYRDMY
Nature of the series: Test A: transient transfection assay in HepG2 cells, Gal4-PPAR chimeric receptor, luciferase reporter (hPPARα). The conditions noted are these: HepG2 cells transfected with hPPARα chimeric receptor; 24 hours incubation; compound 50 μM to 50 pM; read-out: Hep G2-hα EC50. It counts as cell-based. As to the method:
as §1
as §2, with “program. […] Accordingly, the compounds of the present invention should find considerable therapeutic applications for hypercholesterolemia and hyperlipidemia.” for “program.”

Turning to `Cc1nc(-c2ccc(C(F)(F)F)cc2)sc1CSc1ccc2c(c1)CCN(CC(=O)O)C2` [Example 10, {6-[4-Methyl-2-(4-trifluoromethyl-phenyl)-thiazol-5-ylmethylsulfanyl]-3,4-dihydro-1H-isoquinolin-2-yl}-acetic acid], the EC50 (in general, the concentration at which the effect is half-maximal) on hPPARβ was 0.111 µM. `Cc1nc(-c2ccc(C(F)(F)F)cc2)sc1CSc1ccc2c(c1)CC(C(=O)O)C2` (stereo not shown) [Example 1, 5-[4-methyl-2-(4-trifluoromethyl-phenyl)-thiazol-5-ylmethylsulfanyl]-indan-2-carboxylic acid]: the EC50 at hPPARβ amounted to 0.178 µM; at hPPARα, 0.384 µM. Turning to `Cc1nc(-c2ccc(C(F)(F)F)cc2)sc1CSc1ccc2oc(C(=O)O)cc2c1` [Example 6, 5-[4-methyl-2-(4-trifluoromethyl-phenyl)-thiazol-5-ylmethylsulfanyl]-benzofuran-2-carboxylic acid], the melting point – broadly, the temperature, or range, at which the solid turns liquid – was in the range of 207 to 209 °C. Also, the EC50 at hPPARα came out at 2.04 µM. As to `COc1cc2c(cc1SCc1sc(-c3ccc(C(F)(F)F)cc3)nc1C)CCC(CC(=O)O)C2` (stereo not shown) [Example 13, {7-Methoxy-6-[4-methyl-2-(4-trifluoromethyl-phenyl)-thiazol-5-ylmethylsulfanyl]-1,2,3,4-tetrahydro-naphthalen-2-yl}-acetic acid], the EC50 on hPPARβ amounted to 0.0241 µM; at hPPARα, 1.19 µM. The like results for `Cc1nc(-c2ccc(C(F)(F)F)cc2)sc1CSc1ccc2c(c1)CC(CC(=O)O)C2` (stereo not shown) [Example 2, {5-[4-methyl-2-(4-trifluoromethyl-phenyl)-thiazol-5-ylmethylsulfanyl]-indan-2-yl}-acetic acid] were, in that order, 0.267 µM and 1.96 µM. `Cc1nc(-c2ccc(C(F)(F)F)cc2)sc1CSc1ccc2c(c1)CCC(CC(=O)O)C2=O` (stereo not shown) [Example 7, {6-[4-Methyl-2-(4-trifluoromethylphenyl)thiazol-5-ylmethylsulfanyl]-1-oxo-3,4-dihydro-1H-naphthalen-2-yl}-acetic acid]: the EC50 at hPPARβ is 0.614 µM.

`COc1cc2on(CC(=O)O)c(=O)c2cc1SCc1sc(-c2ccc(C(F)(F)F)cc2)nc1C` [Example 22, 6-Methoxy-5-[4-Methyl-2-(4-trifluoromethyl-pheny)-thiazol-5-ylmethylsulfanyl]-3-oxo-3H-benzo[d]isoxazo-2-yl-acetic-acid] displayed a melting point of 245 to 247 °C. For `Cc1cc2c(cc1SCc1sc(-c3ccc(C(F)(F)F)cc3)nc1C)CCC(CC(=O)O)O2` (stereo not shown) [Example 15, 7-Methyl-6-[4-methyl-2-(4-trifluoromethyl-pheny)-thiazol-5-ylmethylsulfanyl]-chroman-2-yl-acetic acid], the EC50 was 0.252 µM at hPPARβ and 1.3 µM on hPPARα.

For `Cc1nc(-c2ccc(C(F)(F)F)cc2)sc1CSc1ccc2c(c1)CC(CC(=O)O)O2` (stereo not shown) [Example 4, {5-[4-Methyl-2-(4-trifluoromethyl-phenyl)-thiazol-5-ylmethylsulfanyl]-2,3-dihydro-benzofuran-2-yl}-acetic acid], the EC50 on hPPARβ is 1.54 µM; on hPPARα, 0.899 µM. For `Cc1nc(-c2ccc(C(F)(F)F)cc2)sc1CSc1ccc2c(c1)CCC(CC(=O)O)O2` (stereo not shown) [Example 5], in that order: 0.0083 µM and 3.74 µM.

For `COc1cc2c(cc1SCc1sc(-c3ccc(C(F)(F)F)cc3)nc1C)CCC2CC(=O)O` (stereo not shown) [Example 19, {6-Methoxy-5-[4-methyl-2-(4-trifluoromethyl-phenyl)-thiazol-5-ylmethylsulfanyl]-indan-1-yl}-acetic acid], the concentration giving a half-maximal response (EC50) was 0.113 µM on hPPARβ and 0.042 µM at hPPARα. Regarding `Cc1nc(-c2ccc(C(F)(F)F)cc2)sc1CSc1ccc2c(c1)CCCN2CC(=O)O` [Example 11, {6-[4-methyl-2-(4-trifluoromethyl-phenyl)-thiazol-5-ylmethylsulfanyl]-3,4-dihydro-2H-quinolin-1-yl}-acetic acid], the EC50 came to 0.286 µM at hPPARβ and 1.93 µM on hPPARα. `Cc1nc(-c2ccc(C(F)(F)F)cc2)sc1CSc1ccc2c(c1)CC(C(=O)O)CO2` (stereo not shown) [Example 17, 6-[4-methyl-2-(4-trifluoromethyl-pheny)-thiazol-5-ylmethylsulfanyl]-chroman-3-carboxylic acid] displayed a melting point of 139 to 140 °C. For the same molecule, the EC50 at hPPARβ came to 2.13 µM. Moreover, the EC50 on hPPARα was determined as 2.19 µM. For `Cc1nc(-c2ccc(C(F)(F)F)cc2)sc1CSc1ccc2c(c1)CCC(C)(CC(=O)O)O2` (stereo not shown) [Example 8, {2-methyl-6-[4-methyl-2-(4-trifluoromethyl-phenyl)-thiazol-5-ylmethylsulfanyl]-chroman-2-yl}-acetic acid], at hPPARβ, the EC50 came out at 3.47 µM. Same read-out and setting: the result for `Cc1nc(-c2ccc(C(F)(F)F)cc2)sc1CSc1ccc2c(c1)CCC(=O)N2CC(=O)O` [Example 12] reads 0.896 µM. Same read-out and setting: the result for `COc1cc2c(cc1SCc1sc(-c3ccc(C(F)(F)F)cc3)nc1C)CCC(CC(=O)O)O2` (stereo not shown) [Example 14, 7-methoxy-6-[4-methyl-2-(4-trifluoromethyl-pheny)-thiazol-5-ylmethylsulfanyl]-chroman-2-yl-acetic acid] reads 0.019 µM.

For `Cc1nc(-c2ccc(C(F)(F)F)cc2)sc1COc1ccc2c(CC(=O)O)csc2c1` [Example 23, {6-[4-Methyl-2-(4-trifluoromethyl-phenyl)-thiazol-5-ylmethoxy]-benzo[b]thiophen-3-yl}-acetic acid], at hPPARα, the EC50 worked out at 0.572 µM. As to `Cc1nc(-c2ccc(C(F)(F)F)cc2)sc1CSc1ccc2c(c1)C=C(C(=O)O)CO2` [Example 16, 6-[4-methyl-2-(4-trifluoromethyl-pheny)-thiazol-5-ylmethylsulfanyl]-2H-chromene-3-carboxylic acid], the concentration giving a half-maximal response (EC50) on hPPARβ came out at 2.21 µM. With `Cc1nc(-c2ccc(C(F)(F)F)cc2)sc1CSc1ccc2c(c1)CC(CC(=O)O)CO2` (stereo not shown) [Example 18, 6-[4-methyl-2-(4-trifluoromethyl-pheny)-thiazol-5-ylmethylsulfanyl]-chroman-3-yl-acetic acid], the melting point was 149 to 149.5 °C. The EC50 on hPPARβ stood at 0.394 µM. The EC50 on hPPARα was 1000 µM.

Turning to `Cc1nc(-c2ccc(C(F)(F)F)cc2)sc1CSc1ccc2c(c1)CCC(C(=O)O)O2` (stereo not shown) [Example 3], the concentration for a half-maximal effect (EC50) on hPPARβ was found to be 0.762 µM; at hPPARα, 0.917 µM.
